For series [1] the following is noted: cited from earlier work.
Series [2] in a line: stability testing / degradation of paliperidone. Type of series: physicochemical. The following applies: stress conditions, stability testing (FIGS. 7, 8, 9A, 9B). An excerpt:
FIGS. 8, 9A and 9B illustrate the increased stability of paliperidone in the dosage forms incorporating the protective subcoat compared to dosage forms not incorporating the protective subcoat.

For series [3] the following is noted: in vivo; cited from earlier work.

`Cc1nc2n(c(=O)c1CCN1CCC(c3noc4cc(F)ccc34)CC1)CCCC2` [risperidone]: the solubility in water result in series [1] is recorded as “practically insoluble in water”.

Regarding `Cc1nc2n(c(=O)c1CCN1CCC(c3noc4cc(F)ccc34)CC1)CCCC2O` (stereo not shown) [paliperidone], in series [2], the degradation / stability entry is reported as “degrades into notable amounts of impurities”. Moreover, the solubility in water entry in series [1] was “practically insoluble in water”. The half-life entry in series [3] is reported as “about one”.

The values above are taken from patent US9393192B2, “Methods and dosage forms for controlled delivery of paliperidone and risperidone” (ALZA CORPORATION, priority 2002, dated 2016).
